Target: T1, recombinant human Flag-tagged PARP7 (amino acids 456-657) (Homo sapiens, UniProt Q7Z3E1)
T1 construct: recombinant human Flag-tagged PARP7 (amino acids 456-657)
T1 sequence (Q7Z3E1 456-657): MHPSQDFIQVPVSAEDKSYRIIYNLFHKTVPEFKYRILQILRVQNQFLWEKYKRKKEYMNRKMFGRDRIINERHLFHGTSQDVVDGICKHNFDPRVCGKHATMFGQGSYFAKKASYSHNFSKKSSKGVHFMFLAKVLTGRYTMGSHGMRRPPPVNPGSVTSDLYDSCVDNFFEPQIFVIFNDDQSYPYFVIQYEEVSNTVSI
Assay: PARP7 biochemical DELFIA assay (auto-MARylation)
Conditions: DELFIA readout, IC50 class
Experimental: A suitable assay may be conducted using 10-30 nM PARP7 (amino acids 456-657), 2 μM biotin-NAD assay solution in 20 mM HEPES (pH 7.5), 100 mM NaCl, 2 mM DTT, 0.1% BSA (w/v), 0.02% Tween (v/v) assay buffer. MARylation may take place for 2-3 h at room temperature and may be detected using a dissociation-enhanced lanthanide fluorescence immunoassay (DELFIA) readout. This assay format has been recently utilised for screening for modulators of PARP7 and other MonoPARP enzymes ([…]. et al. Forced Self-Modification Assays as a Strategy to Screen MonoPARP Enzymes. SLAS Discovery. 25; 241-252, (2020)). A particularly suitable assay is described in the Examples below. Optiplate HB 384-well plates were coated with anti-FLAG antibody, supplied as a 4 mg/ml solution, using a Na2CO3/HCO3 coating buffer at pH 9.6, overnight at 4° C., in order to achieve a final immobilisation per well of 0.3 μg. Wells were then washed 3× in coating wash buffer (PBS/0.05% Tween (v/v)), blocked with 2% BSA (w/v) in coating wash buffer and washed 3 further times prior to assay. For the assay 20 μl of 12.5-37.5 nM recombinant human Flag-tagged PARP7 (amino acids 456-657) was added to each well of the 384-well plate for 30 min at room temperature. 50 nl of test compound in DMSO was added using pintool technology and plates were incubated for a further 30 min at room temperature. 5 μl of 15 μM biotin-NAD^+ assay solution in 20 mM HEPES (pH 7.5), 100 mM NaCl, 2 mM DTT, 0.1% BSA (w/v), 0.02% Tween (v/v) assay buffer was then added and MARylation proceeded for 2-3 h at room temperature prior to the addition of 5 μl of 12 mM NAD^+ quenching solution. After 30 min at room temperature, assay solution was removed and following washing 5 times, 100 μl of a 1:1000 dilution of DELFIA Eu-N1 Streptavidin reagent was added. Plates were then incubated for 30 min at room temperature. Reaction mixture was removed and plates washed 5 times prior to the addition of 25 μl DELFIA enhancement solution. Following incubation for 30 min at room temperature, fluorescence was read on either an Envision or Pherastar FS (Ex337 nm, Em620 nm).

IC50 [µM]	Compound
≤ 0.1	CC(COCCC(=O)N1CCN(c2ncc(C(C)(C)C)cn2)CC1)n1cc(C(F)(F)F)c2c(=O)[nH]ncc21 (single isomer, unassigned) [Compound 498]
≤ 0.1	CC1CN(c2ncc(C(F)(F)F)cn2)CCN1C(=O)CCOCCn1cc(C(F)(F)F)c2c(=O)[nH]ncc21 (single isomer, unassigned) [Compound 371]
≤ 0.1	CC(COCCC(=O)N1CCN(c2ncc(C3CC3)cn2)CC1)n1nc(C(F)(F)F)c2c(=O)[nH]ncc21 (single isomer, unassigned) [Compound 281]
0.1 to 1	N#Cc1ccc(N2CCN(C(=O)c3cccc(CN4CCCc5c4cn[nH]c5=O)c3)CC2)nc1 [Compound 7]
≤ 0.1	CC(COCCC(=O)N1CCN(c2ncc(C(F)(F)F)cn2)CC1)n1cc(C(F)(F)F)c2c(=O)[nH]ncc21 (single isomer, unassigned) [Compound 223, 1-(1-(3-oxo-3-(4-(5-(trifluoromethyl)pyrimidin-2-yl)piperazin-1-yl)propoxy)propan-2-yl)-3-(trifluoromethyl)-1,5-dihydro-4H-pyrrolo[2,3-d]pyridazin-4-one]
1 to 10	N#Cc1ccc(N2CCN(C(=O)CCOCCn3c(C(F)(F)F)nc4c(=O)[nH]ncc43)CC2)nc1 [Compound 272]
≤ 0.1	N#Cc1ccc2oc(N3CCN(C(=O)CCOCCn4cc(C(F)(F)F)c5c(=O)[nH]ncc54)CC3)nc2c1 [Compound 361]
≤ 0.1	CC(COCCC(=O)N1CCN(c2ncc(C3COC3)cn2)CC1)n1nc(C(F)(F)F)c2c(=O)[nH]ncc21 (stereo not shown) [Compound 288]
≤ 0.1	O=C(CCOCCN1C(=O)CCc2c1cn[nH]c2=O)N1CCN(c2ncc(C(F)(F)F)cn2)CC1 [Compound 157]
≤ 0.1	O=C(CCOCCc1ccc(F)c2c(=O)[nH]ncc12)N1CCN(c2ncc(C(F)(F)F)cn2)CC1 [Compound 158]
≤ 0.1	[2H]C([2H])(Cn1nc(C(F)(F)F)c2c(=O)[nH]ncc21)OCCC(=O)N1CCN(c2ncc(C#N)cn2)CC1 [Compound 408]
0.1 to 1	O=C(CCOCCc1cc(C(F)(F)F)cc2c(=O)[nH]ncc12)N1CCN(c2ncc(C(F)(F)F)cn2)CC1 [Compound 69]
≤ 0.1	CC1CN(c2ncc(C(F)(F)F)cn2)CCN1C(=O)CCOCCc1cccc2c(=O)[nH]ncc12 (stereo not shown) [Compound 88]
≤ 0.1	CC(COCC(=O)NC1CCN(c2ncc(C(F)(F)F)cn2)CC1)n1nc(C(F)(F)F)c2c(=O)[nH]ncc21 (single isomer, unassigned) [Compound 480, 2-(2-(4-oxo-3-(trifluoromethyl)-4,5-dihydro-1H-pyrazolo[3,4-d]pyridazin-1-yl)propoxy)-N-(1-(5-(trifluoromethyl)pyrimidin-2-yl)piperidin-4-yl) acetamide]
≤ 0.1	O=C(CCOCCN1CCCc2c1cn[nH]c2=O)N1CCN(c2ncc(C(F)(F)F)cn2)CC1 [Compound 8]
≤ 0.1	CC1CN(c2ccc(C#N)cn2)CCN1C(=O)CCOCCc1cccc2c(=O)[nH]ncc12 (single isomer, unassigned) [Compound 86]
0.1 to 1	CNCc1cc2c(=O)[nH]ncc2n1CCOCCC(=O)N1CCN(c2ncc(C(F)(F)F)cn2)CC1 [Compound 49]
≤ 0.1	CC(COCCC(=O)N1CCN(c2cc(C(F)(F)F)on2)CC1)n1nc(C(F)(F)F)c2c(=O)[nH]ncc21 (single isomer, unassigned) [Compound 429]
1 to 10	N#Cc1ccc(N2CCN(S(=O)(=O)c3cccc(Cc4cccc5c(=O)[nH]ncc45)c3)CC2)nc1 [Compound 39]
≤ 0.1	CC(COCCC(=O)N1CCN(c2ccc(C#N)cn2)CC1)n1nc(C(F)(F)F)c2c(=O)[nH]ncc21 (single isomer, unassigned) [Compound 270]

IC50 [µM]	Compound
0.1 to 1	N#Cc1ccc(N2CCN(C(=O)c3cccc(Cc4cccc5c4C(=O)NC5=O)c3)CC2)nc1 [Compound 66]
≤ 0.1	O=C(CCOCCc1csc2c(=O)[nH]c(=O)[nH]c12)N1CCN(c2ncc(C(F)(F)F)cn2)CC1 [Compound 144]
≤ 0.1	CC(COCCC(=O)N1CCN(c2ncc(C(F)(F)F)cn2)CC1)c1cc(Cl)cc2c(=O)[nH]ncc12 (stereo not shown) [Compound 163]
≤ 0.1	O=C(CCOCCc1cccc2c(=O)[nH]ncc12)N1CCC(c2nc3ccccc3s2)CC1 [Compound 140]
≤ 0.1	CC(COCCC(=O)N1CCN(c2nc(C#N)co2)CC1)n1nc(C(F)(F)F)c2c(=O)[nH]ncc21 (single isomer, unassigned) [Compound 319]
1 to 10	N#Cc1ccc(N2CCN(C(=O)Cc3cccc(Cc4cccc5c(=O)[nH]ncc45)c3)CC2)nc1 [Compound 38]
≤ 0.1	[2H]C([2H])(OCCC(=O)N1CCN(c2ncc(C#N)cn2)CC1)C(C)n1nc(C(F)(F)F)c2c(=O)[nH]ncc21 (single isomer, unassigned) [Compound 420, 2-(4-(3-(2-(4-oxo-3-(trifluoromethyl)-4,5-dihydro-1H-pyrazolo[3,4-d]pyridazin-1-yl)propoxy-1,1-d2)propanoyl)piperazin-1-yl)pyrimidine-5-carbonitrile]
0.1 to 1	O=C(CCOCCc1cccc2c(=O)[nH]ncc12)N1CCN(c2ccccn2)CC1 [Compound 103]
≤ 0.1	CC(COCCC(=O)N1CCN(c2ncc(C(C)(F)F)cn2)CC1)n1nc(C(F)(F)F)c2c(=O)[nH]ncc21 (single isomer, unassigned) [Compound 485]
0.1 to 1	CNC(=O)c1ccc(N2CCN(C(=O)CCOCC(C)n3nc(C(F)(F)F)c4c(=O)[nH]ncc43)CC2)nc1 (stereo not shown) [Compound 304]
≤ 0.1	CC(COCCC(=O)N1CCN(c2cc(C(F)(F)F)ccn2)CC1)n1nc(C(F)(F)F)c2c(=O)[nH]ncc21 (stereo not shown) [Compound 351]
0.1 to 1	N#Cc1ccc(N2CCN(C(=O)c3cccc(Cn4ncc5c(=O)[nH]ncc54)c3)CC2)nc1 [Compound 24]
≤ 0.1	O=C(CCOCCc1cccc2c(=O)[nH]ncc12)N1CCN(c2ccc(C(F)(F)F)cn2)CC1 [Compound 98, 5-(2-(3-oxo-3-(4-(5-(trifluoromethyl)pyridin-2-yl)piperazin-1-yl)propoxy)ethyl)phthalazin-1(2H)-one]
≤ 0.1	CCC(COCCC(=O)N1CCN(c2ncc(C(F)(F)F)cn2)CC1)n1nc(C(F)(F)F)c2c(=O)[nH]ncc21 (stereo not shown) [Compound 297]
≤ 0.1	CC(COCC(=O)N(C)C1CCN(c2ncc(C(F)(F)F)cn2)CC1)n1cc(C(F)(F)F)c2c(=O)[nH]ncc21 (single isomer, unassigned) [Compound 462]
≤ 0.1	Cc1c(C)n(CCOCCC(=O)N2CCN(c3ncc(C(F)(F)F)cn3)CC2)c2cn[nH]c(=O)c12 [Compound 230]
0.1 to 1	O=C(CCOCCn1c(C(F)(F)F)nc2c(=O)[nH]ncc21)N1CCN(c2ncc(C(F)(F)F)cn2)CC1 [Compound 184]
≤ 0.1	O=C(CCOCCc1cccc2c(=O)[nH]c(=O)[nH]c12)N1CCN(c2ncc(C(F)(F)F)cn2)CC1 [Compound 45]
≤ 0.1	[2H]C([2H])(Cn1nc(C(F)(F)F)c2c(=O)[nH]ncc21)OCCC(=O)N1CCN(c2ncc(C(F)(F)F)cn2)CC1 [Compound 409]
≤ 0.1	CC(CCOCC(=O)N1CCN(c2ncc(C(F)(F)F)cn2)CC1)n1nc(C(F)(F)F)c2c(=O)[nH]ncc21 (single isomer, unassigned) [Compound 327, 1-(4-(2-oxo-2-(4-(5-(trifluoromethyl)pyrimidin-2-yl)piperazin-1-yl)ethoxy)butan-2-yl)-3-(trifluoromethyl)-1,5-dihydro-4H-pyrazolo[3,4-d]pyridazin-4-one]
